From ChEMBL document CHEMBL1201862, “PubChem BioAssay data set” (2004)
Active and inactive are the calls of the source.

Assays:
[1] = molecular target: T1, Neuropeptides B/W receptor type 1 (Homo sapiens, UniProt P48145); experiment: Fluorescence-based dose response cell-based high throughput screening assay to identify antagonists of the G-protein coupled receptor 7 (GPR7). [Related pubchem assays: 1952 (Screening assay (GPR7 antagonists).), 1880 (Summary AID.)]; type: functional
T1 sequence (P48145 whole entry): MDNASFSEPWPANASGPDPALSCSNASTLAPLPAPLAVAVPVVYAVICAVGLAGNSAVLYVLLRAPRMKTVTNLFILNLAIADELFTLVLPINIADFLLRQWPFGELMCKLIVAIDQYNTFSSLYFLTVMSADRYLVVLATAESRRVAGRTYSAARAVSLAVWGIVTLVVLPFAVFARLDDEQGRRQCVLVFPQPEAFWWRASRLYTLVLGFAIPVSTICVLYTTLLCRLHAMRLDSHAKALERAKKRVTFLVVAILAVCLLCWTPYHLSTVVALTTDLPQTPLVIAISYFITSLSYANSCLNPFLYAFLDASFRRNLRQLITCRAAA

[2] = molecular target: Melanin-concentrating hormone receptor 1 (Homo sapiens, UniProt Q99705); experiment: Fluorescence-based counterscreen for antagonists of the G-protein coupled receptor 7 (GPR7): cell-based high throughput dose response assay to identify antagonists of the melanin-concentrating hormone receptor 1 (MCHR1).; type: functional
Sequence of Melanin-concentrating hormone receptor 1 (Q99705 whole entry): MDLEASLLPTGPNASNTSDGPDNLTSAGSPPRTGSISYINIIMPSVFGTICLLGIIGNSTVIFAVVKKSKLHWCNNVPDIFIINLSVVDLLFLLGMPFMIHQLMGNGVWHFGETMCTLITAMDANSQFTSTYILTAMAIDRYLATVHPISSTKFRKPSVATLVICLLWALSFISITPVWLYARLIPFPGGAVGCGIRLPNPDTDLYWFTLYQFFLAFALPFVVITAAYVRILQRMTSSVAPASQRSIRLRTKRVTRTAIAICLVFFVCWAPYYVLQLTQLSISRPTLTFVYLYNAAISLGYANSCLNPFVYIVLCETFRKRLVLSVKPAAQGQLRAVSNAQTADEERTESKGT

[3] = molecular target: Ephrin type-A receptor 4 (Mus musculus, UniProt Q03137); experiment: inhibitors of EphA4 binding to KYL peptide, primary screen, biochemical, colorimetric, mouse EphA4 (AID 689); type: functional
Sequence of Ephrin type-A receptor 4 (Q03137 whole entry): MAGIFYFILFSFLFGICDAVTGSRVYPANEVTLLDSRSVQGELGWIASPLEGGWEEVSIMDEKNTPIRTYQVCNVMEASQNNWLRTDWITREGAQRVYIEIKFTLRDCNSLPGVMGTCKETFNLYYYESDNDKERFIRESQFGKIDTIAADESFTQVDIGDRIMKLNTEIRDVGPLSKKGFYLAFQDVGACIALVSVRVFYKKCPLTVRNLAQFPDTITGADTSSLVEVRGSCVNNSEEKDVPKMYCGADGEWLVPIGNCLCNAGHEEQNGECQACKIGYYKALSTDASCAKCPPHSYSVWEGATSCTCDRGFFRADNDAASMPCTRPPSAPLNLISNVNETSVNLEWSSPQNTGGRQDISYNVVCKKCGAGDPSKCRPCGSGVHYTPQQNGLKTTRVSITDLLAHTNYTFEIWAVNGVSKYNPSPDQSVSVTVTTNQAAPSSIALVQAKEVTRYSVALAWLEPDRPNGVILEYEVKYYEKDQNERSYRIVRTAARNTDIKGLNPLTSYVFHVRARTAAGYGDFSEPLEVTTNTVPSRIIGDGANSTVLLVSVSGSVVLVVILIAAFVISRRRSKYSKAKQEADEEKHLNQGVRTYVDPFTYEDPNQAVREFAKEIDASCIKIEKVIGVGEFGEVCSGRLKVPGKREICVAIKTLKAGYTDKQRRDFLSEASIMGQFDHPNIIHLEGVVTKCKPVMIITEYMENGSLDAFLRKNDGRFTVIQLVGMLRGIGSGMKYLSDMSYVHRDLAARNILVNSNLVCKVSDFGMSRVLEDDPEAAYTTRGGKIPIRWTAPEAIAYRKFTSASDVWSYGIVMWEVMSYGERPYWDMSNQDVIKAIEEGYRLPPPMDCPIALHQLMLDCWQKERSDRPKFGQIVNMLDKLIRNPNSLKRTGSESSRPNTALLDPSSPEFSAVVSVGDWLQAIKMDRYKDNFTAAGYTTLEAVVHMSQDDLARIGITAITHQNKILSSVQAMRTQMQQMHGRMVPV

[4] = molecular target: E3 ubiquitin-protein ligase Mdm2 (Homo sapiens, UniProt Q00987); experiment: enhancers of MDM2-luciferase reporter signal, concentration-effect titration, project on inhibitors of MDM2 ubiquitin ligase, cellular assay, luminescent readout, 384-well plate format (AID 1394); type: functional;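 also: MDM2 E3 inhibitors raise luminescence so EC50 is for signal enhancement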
Sequence of E3 ubiquitin-protein ligase Mdm2 (Q00987 whole entry): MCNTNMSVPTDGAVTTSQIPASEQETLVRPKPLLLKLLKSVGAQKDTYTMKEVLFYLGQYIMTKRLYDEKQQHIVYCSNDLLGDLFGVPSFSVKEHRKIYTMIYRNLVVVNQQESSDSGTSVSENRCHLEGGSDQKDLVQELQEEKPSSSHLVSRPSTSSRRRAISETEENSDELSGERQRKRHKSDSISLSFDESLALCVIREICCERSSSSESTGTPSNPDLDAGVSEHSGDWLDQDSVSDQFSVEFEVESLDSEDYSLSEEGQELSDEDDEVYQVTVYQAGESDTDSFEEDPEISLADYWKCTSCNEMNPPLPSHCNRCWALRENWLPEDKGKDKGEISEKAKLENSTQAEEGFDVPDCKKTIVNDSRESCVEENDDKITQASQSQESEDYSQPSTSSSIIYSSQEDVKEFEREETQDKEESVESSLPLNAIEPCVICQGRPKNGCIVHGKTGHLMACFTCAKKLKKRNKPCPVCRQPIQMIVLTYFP

[5] = Luminescence Cell-Based Dose Response to Identify Activators of 5'UTR Stem-Loop Driven Prion Protein mRNA Translation in H4-C Neuroglioblastoma Cells. [Related pubchem assays: 1829 (Project Summary), 1814 (Primary HTS)]; type: functional
[6] = Luminescence Cell-Based Dose Confirmation HTS to Identify Activators of 5'UTR Stem-Loop Driven Alpha-Synuclein mRNA Translation in H4 Neuroglioblastoma Cells. [Related pubchem assays: 1829 (Project Summary), 1814 (Primary HTS)]; type: functional
[7] = Luminescence Cell-Based Dose Response HTS to Identify Activators of Luciferase Translation or Activity in H4 […] Cells. [Related pubchem assays: 1829 (Project Summary), 1814 (Primary HTS)]; type: functional
[8] = system: BJ; experiment: cytotoxicity toward BJ-TERT fibroblasts, dose response, cell-based, RAS-independent, luminescence (AID 1933); type: functional; conditions: Homo sapiens
[9] = system: H4; experiment: Luminescence Cell-Based Dose Response HTS to Identify Activators of 5'UTR Stem-Loop Driven Prion Protein mRNA Translation in H4 Neuroglioblastoma Cells. [Related pubchem assays: 1829 (Project Summary), 1814 (Primary HTS)]; type: functional; conditions: Homo sapiens
[10] = system: BJ; experiment: cells; type: functional, cell-based; conditions: Homo sapiens
[11] = Luminescence Cell-Based Dose Response to Identify Activators of Luciferase Translation or Activity in H4-C Neuroglioblastoma Cells. [Related pubchem assays: 1829 (Project Summary), 1814 (Primary HTS)]; type: functional
[12] = Luminescence Cell-Based Dose Confirmation to Identify Activators of 5'UTR Stem-Loop Driven Alpha-Synuclein mRNA Translation in H4 Neuroglioblastoma Cells. [Related pubchem assays: 1829 (Project Summary), 1814 (Primary HTS)]; type: functional
[13] = system: BJ; experiment: cytotoxicity toward BJ-TERT-LT-ST fibroblasts, dose response, cell-based, RAS-independent, luminescence (AID 1935); type: functional; conditions: Homo sapiens;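 also: BJ fibroblasts immortalized with TERT plus LT and ST oncogenes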
[14] = cytotoxicity toward DRD oncogenic fibroblasts, dose response, cell-based, non-viral oncogenic, luminescence (AID 1934); type: functional; conditions: Homo sapiens
[15] = molecular target: Large T antigen (Simian virus 40, UniProt P03070); type: functional, Betapolyomavirus macacae;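 also: Confirmatory-stage PubChem screen for compounds that inhibit SV40 T antigen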
Sequence of Large T antigen (P03070 whole entry): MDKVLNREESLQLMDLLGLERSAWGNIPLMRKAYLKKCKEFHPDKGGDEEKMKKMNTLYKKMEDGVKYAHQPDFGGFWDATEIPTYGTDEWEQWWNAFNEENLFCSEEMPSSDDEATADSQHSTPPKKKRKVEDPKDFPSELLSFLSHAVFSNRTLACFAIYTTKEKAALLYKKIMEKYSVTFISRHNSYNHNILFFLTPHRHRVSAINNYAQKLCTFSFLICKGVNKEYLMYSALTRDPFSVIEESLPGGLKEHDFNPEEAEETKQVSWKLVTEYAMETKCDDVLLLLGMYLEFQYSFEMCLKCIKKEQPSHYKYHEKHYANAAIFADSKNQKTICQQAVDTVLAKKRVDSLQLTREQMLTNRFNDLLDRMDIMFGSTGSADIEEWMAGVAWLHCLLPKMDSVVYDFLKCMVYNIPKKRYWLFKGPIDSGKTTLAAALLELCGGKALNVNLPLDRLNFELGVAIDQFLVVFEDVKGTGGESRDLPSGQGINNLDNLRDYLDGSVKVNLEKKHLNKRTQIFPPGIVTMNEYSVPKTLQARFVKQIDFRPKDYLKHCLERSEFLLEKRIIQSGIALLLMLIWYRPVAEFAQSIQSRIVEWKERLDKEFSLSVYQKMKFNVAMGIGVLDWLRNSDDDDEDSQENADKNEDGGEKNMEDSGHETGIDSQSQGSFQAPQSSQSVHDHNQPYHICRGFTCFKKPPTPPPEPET

[16] = molecular target: T2, Estrogen receptor beta (Homo sapiens, UniProt Q92731);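 also: recombinant ER-beta bound to coactivator SRC1 peptide in presence of estradiol agonist; inhibitors block coactivator peptide binding and lower the FRET signal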
T2 sequence (Q92731 whole entry): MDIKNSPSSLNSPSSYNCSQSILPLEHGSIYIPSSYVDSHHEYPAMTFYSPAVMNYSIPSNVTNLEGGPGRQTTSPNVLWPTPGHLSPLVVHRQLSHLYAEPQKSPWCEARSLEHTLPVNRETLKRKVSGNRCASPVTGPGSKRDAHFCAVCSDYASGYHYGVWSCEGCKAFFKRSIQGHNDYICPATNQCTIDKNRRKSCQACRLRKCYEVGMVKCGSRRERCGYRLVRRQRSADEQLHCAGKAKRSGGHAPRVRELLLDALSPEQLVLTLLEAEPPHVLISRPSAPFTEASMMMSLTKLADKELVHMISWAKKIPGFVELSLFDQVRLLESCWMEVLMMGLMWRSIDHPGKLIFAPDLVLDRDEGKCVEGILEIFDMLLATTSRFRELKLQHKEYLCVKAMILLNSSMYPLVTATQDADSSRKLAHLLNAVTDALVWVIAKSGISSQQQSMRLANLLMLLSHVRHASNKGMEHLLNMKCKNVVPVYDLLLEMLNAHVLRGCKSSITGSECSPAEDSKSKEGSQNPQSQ

[17] = molecular target: T2, Estrogen receptor beta; experiment: ERβ–SRC-3 coactivator interaction inhibitors, confirmation, orthogonal assay, biochemical, ELISA, streptavidin-HRP readout (AID 1060)
[18] = molecular target: T3, Sentrin-specific protease 8 (Homo sapiens, UniProt Q96LD8); type: functional
T3 sequence (Q96LD8 whole entry): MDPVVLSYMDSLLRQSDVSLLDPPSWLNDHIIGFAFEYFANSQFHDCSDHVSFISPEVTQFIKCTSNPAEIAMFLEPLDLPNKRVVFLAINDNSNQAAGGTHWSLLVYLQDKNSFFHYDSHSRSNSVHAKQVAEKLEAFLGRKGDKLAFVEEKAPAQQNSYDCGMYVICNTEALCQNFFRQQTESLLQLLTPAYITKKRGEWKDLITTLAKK

[19] = molecular target: T3, Sentrin-specific protease 8; type: functional; remark: listed apart in the source
[20] = molecular target: T4, Rac GTPase-activating protein 1 (Homo sapiens, UniProt Q9H0H5); experiment: MgcRacGAP GTPase-activating activity inhibitors, confirmation, biochemical, ADP Hunter fluorescence, primary and confirmatory (AID 624330); type: functional
T4 sequence (Q9H0H5 whole entry): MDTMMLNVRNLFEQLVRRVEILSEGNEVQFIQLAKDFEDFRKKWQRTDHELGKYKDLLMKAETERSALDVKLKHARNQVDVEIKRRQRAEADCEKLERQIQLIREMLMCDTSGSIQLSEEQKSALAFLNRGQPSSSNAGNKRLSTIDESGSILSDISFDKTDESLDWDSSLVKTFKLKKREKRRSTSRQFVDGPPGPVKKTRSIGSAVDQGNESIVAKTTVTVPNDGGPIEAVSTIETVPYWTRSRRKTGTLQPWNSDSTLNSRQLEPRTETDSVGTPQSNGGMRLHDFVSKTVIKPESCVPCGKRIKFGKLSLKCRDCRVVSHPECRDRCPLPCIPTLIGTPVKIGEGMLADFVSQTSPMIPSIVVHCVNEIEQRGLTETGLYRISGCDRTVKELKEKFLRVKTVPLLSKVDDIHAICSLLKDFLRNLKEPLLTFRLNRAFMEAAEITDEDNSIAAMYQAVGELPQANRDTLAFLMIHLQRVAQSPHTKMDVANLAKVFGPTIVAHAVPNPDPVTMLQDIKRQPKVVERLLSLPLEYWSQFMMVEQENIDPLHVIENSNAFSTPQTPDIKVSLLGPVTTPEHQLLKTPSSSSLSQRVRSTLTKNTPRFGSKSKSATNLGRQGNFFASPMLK

[21] = molecular target: T5, Mannose-6-phosphate isomerase (Homo sapiens, UniProt P34949); experiment: human PMI inhibitors, high substrate, primary screen, biochemical, fluorescence intensity, high mannose 6-phosphate (AID 1220)
T5 sequence (P34949 whole entry): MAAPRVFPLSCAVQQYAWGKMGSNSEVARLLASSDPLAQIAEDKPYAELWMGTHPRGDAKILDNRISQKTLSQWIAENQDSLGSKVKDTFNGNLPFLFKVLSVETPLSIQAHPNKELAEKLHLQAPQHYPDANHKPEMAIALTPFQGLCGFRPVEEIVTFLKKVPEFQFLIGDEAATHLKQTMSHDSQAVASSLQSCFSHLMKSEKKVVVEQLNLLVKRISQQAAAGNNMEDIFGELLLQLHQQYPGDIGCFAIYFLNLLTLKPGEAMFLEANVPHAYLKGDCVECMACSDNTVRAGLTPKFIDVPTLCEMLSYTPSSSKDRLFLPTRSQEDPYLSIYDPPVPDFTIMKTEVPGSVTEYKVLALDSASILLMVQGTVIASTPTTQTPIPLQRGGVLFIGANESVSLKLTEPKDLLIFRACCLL

[22] = molecular target: T6, Cytochrome P450 1A2 (Homo sapiens, UniProt P05177);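 also: PubChem cytochrome P450 panel assay, CYP1A2 panel member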
T6 sequence (P05177 whole entry): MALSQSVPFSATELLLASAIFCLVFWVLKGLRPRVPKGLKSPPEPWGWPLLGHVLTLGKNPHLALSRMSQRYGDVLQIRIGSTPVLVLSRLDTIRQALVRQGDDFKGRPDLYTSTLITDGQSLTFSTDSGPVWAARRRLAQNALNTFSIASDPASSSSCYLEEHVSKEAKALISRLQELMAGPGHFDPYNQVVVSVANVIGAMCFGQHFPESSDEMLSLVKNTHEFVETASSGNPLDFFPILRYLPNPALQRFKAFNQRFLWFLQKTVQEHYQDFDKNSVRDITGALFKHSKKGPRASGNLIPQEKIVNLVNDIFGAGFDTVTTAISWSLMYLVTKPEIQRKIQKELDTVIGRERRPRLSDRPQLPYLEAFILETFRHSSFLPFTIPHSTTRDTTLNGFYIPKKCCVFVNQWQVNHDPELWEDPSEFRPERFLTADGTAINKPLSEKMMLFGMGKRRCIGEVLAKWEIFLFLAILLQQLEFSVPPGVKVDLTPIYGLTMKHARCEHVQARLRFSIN

In the case of `CCOc1ccc([N+](=O)[O-])cc1CNC1CCCCCCC1`, the IC50 [1] is reported as 27.3 µM (not active) and the IC50 [2] is reported as 12.6 µM (not active).

For `CCn1c(COc2ccccc2C)nnc1SCC(=O)Nc1cc(C)on1`, the IC50 [3] was > 100 µM (not active).

With `O=C(NC1CCCCC1)C(c1cccnc1)N(C(=O)c1ccc(Cl)nc1)C1CCCCC1` (configuration not stated) the EC50 [4] was 12.7 µM (not active).

In the case of `C=CCN(c1cccc(C(F)(F)F)c1)S(=O)(=O)c1cccc(C(=O)OCC(=O)NCCC)c1`, the EC50 [4] is reported as 277 µM (not active).

With `N#CC1=C(SCC(=O)c2ccccc2)N=C2CCCC(O)=C2C1c1ccco1` (configuration not stated) the EC50 [5] was 1.22 µM (active), the EC50 [6] was > 120 µM (not active) and the EC50 [7] was < 0.1 µM (active). For the same compound, the EC50 [8] was 2.85 µM (active), the EC50 [9] was > 120 µM (not active) and the EC50 [10] was 42.1 µM (inconclusive). For the same compound, the EC50 [11] was 0.395 µM (active), the EC50 [12] was 0.464 µM (active) and the EC50 [13] was 18.9 µM (active). The EC50 [14] was 19.3 µM (inconclusive).

For `COc1ccc(C(CNC(=O)COc2ccc(Cl)c(C)c2)N2CCCCC2)cc1` (configuration not stated), the IC50 [1] was > 4.87 µM (active) and the IC50 [2] was 11.3 µM (not active).

With `O=C(Nc1ccc(O)cc1)C1CC=CCC1` (configuration not stated) the IC50 [15] was 16.4 µM (active), the IC50 [16] was 3.2 µM (active) and the IC50 [17] was 0.124 µM (not active). For the same compound, the IC50 [18] was 25.1 µM (active), the IC50 [19] was 19.1 µM (active) and the IC50 [20] was 40.7 µM (active).

With `COc1ccc(C2CC2/C(=N/O)c2ccccn2)cc1` (configuration not stated) the IC50 [1] was > 43.8 µM (not active) and the IC50 [2] was > 43.8 µM (not active).

With `Brc1c(NC2=NCCN2)ccc2nccnc12` [BRIMONIDINE] the IC50 [21] was > 50 µM (not active) and the AC50 [22] was 39.8 µM (inconclusive).
